Experimental data as given in US20100036088A1, “Selective poly-N-substituted glycine antibiotics” (priority 2008, published 2010).
pIC50: −log10 of the molar value. Like-named read-outs stand apart in the source and are kept apart here. Square brackets hold non-standard residues; d marks the D form. Peptide text beside a SMILES is read from it. Nrpe = C[C@@H](NCC(=O)O)c1ccccc1; Nspe = C[C@H](NCC(=O)O)c1ccccc1; Nlys = NCCCCNCC(=O)O

What was measured:
human erythrocytes = assay: Hemolysis assay; type: cell-based
Description: Hemolysis assays. Erythrocytes were isolated from freshly drawn, heparanized human blood and resuspended to 20 vol % in PBS (pH 7.4). In a 96-well microtiter plate, 100 μL erythrocyte suspension was added to 100 μL peptoid solution in PBS (prepared by 1:2 serial dilutions), or 100 μL PBS in the case of negative controls. 100% hemolysis wells contained 100 μL blood cell suspension with 100 μL 0.2 vol % Triton X-100. The plate was incubated for 1 h at 37° C., then each well was diluted with 150 μL PBS. The plate was then centrifuged at 1200 g for 15 min, 100 μL of the supernatant from each well transferred to a fresh microtiter plate, and A350 measured.
Hemolysis assays. Erythrocytes were isolated from freshly drawn, heparanized human blood and resuspended in PBS (pH 7.4) to make a 20% volume suspension. Peptoid solutions were prepared by serial dilution (2:1) in a 96-well microtiter plate. For test wells, 100 μL of erythrocyte suspension was added to 100 μL of peptoid solution in PBS; PBS without peptoid was used as the negative control and 0.2 vol % Triton X-100 as the positive control that indicates 100% hemolysis. After 1 hour incubation at 37° C., each well was diluted with 150 μL PBS. Plates were then centrifuged at 1,200×g for 15 minutes to pellet the cells. 30 μL of the supernatant from each well were transferred to the corresponding well of a second 96-well plate that contains 70 μL PBS.

B. subtilis (ATCC 6633) = type: cell-based; conditions: ATCC 6633
Description: (§1) Whereas the preceding generation of molecules was designed to elucidate structure function relationships of specific molecular parameters (chirality, length, hydrophobicity, etc.), another generation compounds were designed explicitly to explore effects on selectivity. Antimicrobial activity of these compounds was tested against bacterial strains E. coli (ATTC 35218) and B. subtilis (ATTC 6633) in cation-adjusted MHB using the microdilution protocols previously described. The sequences, antimicrobial activities, hemolytic activities, and metabolic inhibitory concentrations against NIH 3T3 mouse fibroblast cells are summarized in Table 3 and the rationale of their design is described below.
(§2) The potencies of all compounds were determined against representative Gram-negative (E. coli ATCC 35218) and Gram-positive (B. subtilis ATCC 6633) biosafety level 1 (BSL1) organisms. In addition to hemolytic activity, the conventional measure of toxicity to mammalian cells, the effect of each ampetoid on NIH 3T3 mouse fibroblast cells was determined using the MTS tetrazolium salt-based calorimetric assay. While hemolysis measures the degree to which erythrocytes are lysed, the MTS assay indirectly quantifies the extent to which cellular metabolic activity is inhibited.
(§3) Screening antibacterial assays. MICs were determined in 96-well microtiter plates in accordance with CLSI M7-A6 protocols. Peptoid solutions with 50 μL total volume were prepared using 2:1 serial dilutions. 50 μL of bacteria inoculum (1×10^6 CFU/mL) prepared in cation-adjusted Mueller-Hinton broth (CAMHB) was added to test wells. Control wells contained 100 μL MHB (no growth) or 50 μL inoculums with 50 μL MHB with no peptoid. […] Reported values were reproducible over three experiments, each containing two parallel trials.

E. coli (ATCC 35218) = type: cell-based; conditions: ATCC 35218
Description: as §1, §2, §3

[1] = MTS assay, metabolic inhibition; type: cell-based, mouse
Description: as §2
MTS assays. NIH/3T3 cells (ATCC Corporation) cultured at 37° C. and 5% CO2 in complete Dulbecco's modified eagle's media (CDMEM) supplemented with 1% sodium pyruvate, 1% penicillin-streptomycin, 1.5 g/L NaHCO3, and 10% fetal bovine serum. Cells were seeded at a density of 5,000 cells per well for NIH/3T3 cells in 96-well plates (100 μl total volume). A peptoid solution plate (100 μL total volume per well) was prepared by serial dilution of aqueous peptoid stock solution in Hank's balanced salt solution (HBSS) media. The day-old cell monolayers were washed with HBSS and media was replaced with 100 μL HBSS. The contents of the peptoid solution plate were transferred onto corresponding wells of the cell monolayer plate, and 40 μL MTS reagent (Promega, Inc.) was added to each well. After incubating for 3 hours at 37° C., absorbance at 490 nm was determined. […] The average of six replicates is reported.

[2] = Table 6, NIH 3T3 mouse fibroblast cells

| Structure (SMILES) | B. subtilis MIC (B. subtilis (ATCC 6633)) [µM] | E. coli MIC (E. coli (ATCC 35218)) [µM] | pIC50 [1] | HD10 (human erythrocytes) | HD50 (human erythrocytes) | HD10 (human erythrocytes; Table 6) [µM] | HD50 (human erythrocytes; Table 6) [µM] | B. subtilis MIC (B. subtilis (ATCC 6633); Table 6) [µM] | E. coli MIC (E. coli (ATCC 35218); Table 6) [µM] | pIC50 [1, 2] |
| --- | --- | --- | --- | --- | --- | --- | --- | --- | --- | --- |
| C[C@H](c1ccccc1)N(CC(=O)N(CCCCN)CC(=O)N(CC(=O)N(CC(=O)N(CCCCN)CC(=O)N(CC(=O)N(CC(=O)N(CCCCN)CC(=O)N(CC(=O)N(CC(N)=O)[C@@H](C)c1ccccc1)[C@@H](C)c1ccccc1)[C@@H](C)c1ccccc1)[C@@H](C)c1ccccc1)[C@H](C)c1ccccc1)[C@H](C)c1ccccc1)C(=O)CN(C(=O)CNCCCCN)[C@H](C)c1ccccc1 [1-Nrpe2,3,5,6, H-(Nlys-Nrpe-Nrpe)2-(Nlys-Nspe-Nspe)2-NH2] (H-[Nlys][Nrpe][Nrpe][Nlys][Nrpe][Nrpe][Nlys][Nspe][Nspe][Nlys][Nspe][Nspe]-NH2) | – | – | – | – | – | 25 | 96 | 0.78 | 6.3 | 5.32 |
| C[C@H](c1ccccc1)N(CC(=O)N(CC(N)=O)[C@@H](C)c1ccccc1)C(=O)CN(CCCCN)C(=O)CN(C(=O)CN(C(=O)CN(CCCCN)C(=O)CN(C(=O)CN(C(=O)CN(CCCCN)C(=O)CN(C(=O)CN(C(=O)CNCCCCN)[C@H](C)c1ccccc1)[C@@H](C)c1ccccc1)[C@H](C)c1ccccc1)[C@@H](C)c1ccccc1)[C@H](C)c1ccccc1)[C@@H](C)c1ccccc1 [1-Nrpe2,5,8,11, H-(Nlys-Nrpe-Nspe)4-NH2] (H-[Nlys][Nrpe][Nspe][Nlys][Nrpe][Nspe][Nlys][Nrpe][Nspe][Nlys][Nrpe][Nspe]-NH2) | – | – | – | – | – | 22 | 95 | 1.6 | 6.3 | 5.28 |
| C[C@H](c1ccccc1)N(CC(N)=O)C(=O)CN(C(=O)CN(CCCCN)C(=O)CN(C(=O)CN(C(=O)CN(CCCCN)C(=O)CN(C(=O)CN(C(=O)CN(CCCCN)C(=O)CN(C(=O)CN(C(=O)CNCCCCN)[C@@H](C)c1ccccc1)[C@H](C)c1ccccc1)[C@@H](C)c1ccccc1)[C@H](C)c1ccccc1)[C@@H](C)c1ccccc1)[C@H](C)c1ccccc1)[C@@H](C)c1ccccc1 [1-Nrpe3,6,9,12, H-(Nlys-Nspe-Nrpe)4-NH2] | – | – | – | – | – | 16 | 67 | 1.6 | 6.3 | 5.42 |
| C[C@@H](c1ccccc1)N(CC(N)=O)C(=O)CN(C(=O)CN(CCCCN)C(=O)[C@@H]1CCCN1C(=O)CN(C(=O)CN(CCCCN)C(=O)CN(C(=O)CN(C(=O)CN(CCCCN)C(=O)[C@@H]1CCCN1C(=O)CN(C(=O)CNCCCCN)[C@@H](C)c1ccccc1)[C@@H](C)c1ccccc1)[C@@H](C)c1ccccc1)[C@@H](C)c1ccccc1)[C@@H](C)c1ccccc1 [1-Pro3,9, H-(Nlys-Nspe-L-Pro-Nlys-Nspe-Nspe)2-NH2] (H-[Nlys][Nspe]P[Nlys][Nspe][Nspe][Nlys][Nspe]P[Nlys][Nspe][Nspe]-NH2) | 1.6 | 50 | 4.15 | >200/>200 μM | >200/>200 μM | – | – | – | – | – |
| C[C@@H](c1ccccc1)N(CC(N)=O)C(=O)CN(C(=O)CN(CCCCN)C(=O)CN(C(=O)CN(C(=O)CN(CCCCN)C(=O)CN(C(=O)CN(C(=O)CN(CCCCN)C(=O)[C@@H]1CCCN1C(=O)CN(C(=O)CNCCCCN)[C@@H](C)c1ccccc1)[C@@H](C)c1ccccc1)[C@@H](C)c1ccccc1)[C@@H](C)c1ccccc1)[C@@H](C)c1ccccc1)[C@@H](C)c1ccccc1 [1-Pro3, H-Nlys-Nspe-L-Pro-(Nlys-Nspe-Nspe)3-NH2] (H-[Nlys][Nspe]P[Nlys][Nspe][Nspe][Nlys][Nspe][Nspe][Nlys][Nspe][Nspe]-NH2) | 1.6 | 12.5 | 4.92 | 74 µM | > 200 µM | – | – | – | – | – |

Continued, in another order:

| B. subtilis MIC (B. subtilis (ATCC 6633)) [µM] | E. coli MIC (E. coli (ATCC 35218)) [µM] | pIC50 [1] | Structure (SMILES) | HD10 (human erythrocytes) | HD50 (human erythrocytes) | HD10 (human erythrocytes; Table 6) [µM] | HD50 (human erythrocytes; Table 6) [µM] | B. subtilis MIC (B. subtilis (ATCC 6633); Table 6) [µM] | E. coli MIC (E. coli (ATCC 35218); Table 6) [µM] | pIC50 [1, 2] |
| --- | --- | --- | --- | --- | --- | --- | --- | --- | --- | --- |
| 1.6 | 25 | – | C[C@@H](c1ccccc1)N(CC(N)=O)C(=O)CN(C(=O)CN(CCCCN)C(=O)CN(C(=O)CN(C(=O)CN(CCCCN)C(=O)CN(CCc1cnc[nH]1)C(=O)CN(C(=O)CN(CCCCN)C(=O)CN(C(=O)CN(C(=O)CNCCCCN)[C@@H](C)c1ccccc1)[C@@H](C)c1ccccc1)[C@@H](C)c1ccccc1)[C@@H](C)c1ccccc1)[C@@H](C)c1ccccc1)[C@@H](C)c1ccccc1 [1-Nhis6] | 170 µM | > 200 µM | – | – | – | – | – |
| 1.6 | 50 | 4.07 | C[C@@H](c1ccccc1)N(CC(N)=O)C(=O)CN(CCCCN)C(=O)CN(CCCCN)C(=O)CN(C(=O)CN(C(=O)CN(CCCCN)C(=O)CN(C(=O)CN(CCCCN)C(=O)CN(CCCCN)C(=O)CN(C(=O)CN(C(=O)CNCCCCN)[C@@H](C)c1ccccc1)[C@@H](C)c1ccccc1)[C@@H](C)c1ccccc1)[C@@H](C)c1ccccc1)[C@@H](C)c1ccccc1 [1-Nlys5,11, H-(Nlys-Nspe-Nspe-Nlys-Nlys-Nspe)2-NH2] (H-[Nlys][Nspe][Nspe][Nlys][Nlys][Nspe][Nlys][Nspe][Nspe][Nlys][Nlys][Nspe]-NH2) | >100/>100 μM | >100/>100 μM | – | – | – | – | – |
| 1.6 | 6.3 | 4.82 | C[C@@H](c1ccccc1)N(CC(N)=O)C(=O)CN(C(=O)CN(CCCCN)C(=O)CN(Cc1ccccc1)C(=O)CN(Cc1ccccc1)C(=O)CN(CCCCN)C(=O)CN(C(=O)CN(C(=O)CN(CCCCN)C(=O)CN(Cc1ccccc1)C(=O)CN(Cc1ccccc1)C(=O)CNCCCCN)[C@@H](C)c1ccccc1)[C@@H](C)c1ccccc1)[C@@H](C)c1ccccc1 [1-Npm2,3,8,9, H-(Nlys-Npm-Npm-Nlys-Nspe-Nspe)2-NH2] | – | > 200 µM | – | – | – | – | – |
| 0.78 | >100 | 4.40 | C[C@H](NCC(=O)N(CCCCN)CC(=O)N(CC(=O)N(CCCCN)CC(=O)N(CCCCN)CC(=O)N(CCCCN)CC(=O)N(CC(=O)N(CCCCN)CC(=O)N(CC(=O)N(CCCCN)CC(=O)N(CCCCN)CC(=O)N(CC(=O)N(CC(=O)N(CCCCN)CC(=O)N(CC(N)=O)[C@@H](C)c1ccccc1)[C@@H](C)c1ccccc1)[C@@H](C)c1ccccc1)[C@@H](C)c1ccccc1)[C@@H](C)c1ccccc1)[C@@H](C)c1ccccc1)c1ccccc1 [1B15mer-Nlys4,6,10, H-(Nspe-Nlys)2-Nlys2-(Nspe-Nlys)2-Nlys-Nspe2-Nlys-Nspe-NH2] (H-[Nspe][Nlys][Nspe][Nlys][Nlys][Nlys][Nspe][Nlys][Nspe][Nlys][Nlys][Nspe][Nspe][Nlys][Nspe]-NH2) | – | – | – | – | – | – | – |
| 1.6 | >100 | < 4.00 | C[C@H](NCC(=O)N(CCCCN)CC(=O)N(CC(=O)N(CCCCN)CC(=O)N(CCCCN)CC(=O)N(CCCCN)CC(=O)N(CC(=O)N(CCCCN)CC(=O)N(CC(=O)N(CCCCN)CC(=O)N(CCCCN)CC(=O)N(CC(N)=O)[C@@H](C)c1ccccc1)[C@@H](C)c1ccccc1)[C@@H](C)c1ccccc1)[C@@H](C)c1ccccc1)c1ccccc1 [1B-Nlys4,6,10, H-(Nspe-Nlys)2-Nlys2-(Nspe-Nlys)2-Nlys-Nspe)-NH2] (H-[Nspe][Nlys][Nspe][Nlys][Nlys][Nlys][Nspe][Nlys][Nspe][Nlys][Nlys][Nspe]-NH2) | – | – | – | – | – | – | – |
